Activity, inhibition and IC50 data for one compound are collected here from ChEMBL document CHEMBL3044761, “Lethal Activity of a Trehalase Inhibitor, Validoxylamine A, against Mamestra brassicae and Spodoptera litura” (J Pestic Sci, 1994).

SMILES strings stand for the structures.

In general, inhibition refers to how much of the control response was suppressed. The low end stands for little suppression, the high end for strong suppression.

Assay [1] relates to Mamestra brassicae. Kind of assay: Insecticidal activity against last-instar Mamestra brassicae larvae assessed as larval-pupal intermediate injected at 50 ug/larvae (reference value: 0%). It is filed as functional.
Assay [2] deals with Mamestra brassicae. Nature of the assay: Insecticidal activity against last-instar Mamestra brassicae larvae assessed as normal pupae at 50 ug/larvae topical application (reference value: 90%). The class given is functional.
Assay [3] deals with Mamestra brassicae. Kind of assay: Insecticidal activity against last-instar Mamestra brassicae larvae assessed as larval-pupal intermediate injected at 1 ug/larvae (reference value: 0%). It is filed as functional.
In assay [4] the test system is Mamestra brassicae. Nature of the assay: Insecticidal activity against last-instar Mamestra brassicae larvae assessed as wing pad separation injected at 50 ug/larvae (reference value: 0%). It is filed as functional.
Assay [5] deals with Spodoptera litura. Nature of the assay: Insecticidal activity against last-instar Spodoptera litura larvae assessed as larval pupal intermediate injected at 50 ug/larvae (reference value: […]). The class given is functional.
For another assay, the target named is T1, Trehalase (Bombyx mori) (UniProt P32358).
T1 sequence (whole entry): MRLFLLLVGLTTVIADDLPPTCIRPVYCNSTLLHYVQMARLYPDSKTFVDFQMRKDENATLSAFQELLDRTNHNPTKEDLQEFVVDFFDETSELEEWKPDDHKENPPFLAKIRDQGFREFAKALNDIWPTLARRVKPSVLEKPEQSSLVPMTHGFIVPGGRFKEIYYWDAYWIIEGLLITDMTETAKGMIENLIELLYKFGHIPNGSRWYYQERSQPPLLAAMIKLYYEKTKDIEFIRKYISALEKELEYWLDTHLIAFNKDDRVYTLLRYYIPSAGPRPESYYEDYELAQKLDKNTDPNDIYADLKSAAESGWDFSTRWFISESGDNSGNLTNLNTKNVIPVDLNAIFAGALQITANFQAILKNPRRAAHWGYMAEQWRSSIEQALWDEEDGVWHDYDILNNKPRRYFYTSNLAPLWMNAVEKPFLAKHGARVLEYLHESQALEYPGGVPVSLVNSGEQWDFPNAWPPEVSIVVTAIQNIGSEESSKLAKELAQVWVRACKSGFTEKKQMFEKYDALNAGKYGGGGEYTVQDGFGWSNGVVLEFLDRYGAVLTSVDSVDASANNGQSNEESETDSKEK
Kind of assay: Inhibition of Bombyx mori trehalase activity in total ovaries at 10 ug/pupa. The note with it: Female gonad.

The test system of assay [6] is Spodoptera litura. Nature of the assay: Insecticidal activity against last-instar Spodoptera litura larvae assessed as normal pupae injected at 50 ug/larvae (reference value: 100%). The class given is functional.
For assay [7], the system named is Spodoptera litura. Nature of the assay: Insecticidal activity against last-instar Spodoptera litura larvae assessed as normal pupae at 50 ug/larvae topical application (reference value: 100%). The class given is functional.
Assay [8] concerns Mamestra brassicae. Kind of assay: Insecticidal activity against last-instar Mamestra brassicae larvae assessed as normal pupae at 50 ug/larvae oral administration (reference value: 90%). The class given is functional.
A further assay has as its target T2, Vacuolar acid trehalase (Saccharomyces cerevisiae (strain ATCC 204508 / S288c) (Baker's yeast), UniProt P48016).
T2 sequence (P48016 whole entry): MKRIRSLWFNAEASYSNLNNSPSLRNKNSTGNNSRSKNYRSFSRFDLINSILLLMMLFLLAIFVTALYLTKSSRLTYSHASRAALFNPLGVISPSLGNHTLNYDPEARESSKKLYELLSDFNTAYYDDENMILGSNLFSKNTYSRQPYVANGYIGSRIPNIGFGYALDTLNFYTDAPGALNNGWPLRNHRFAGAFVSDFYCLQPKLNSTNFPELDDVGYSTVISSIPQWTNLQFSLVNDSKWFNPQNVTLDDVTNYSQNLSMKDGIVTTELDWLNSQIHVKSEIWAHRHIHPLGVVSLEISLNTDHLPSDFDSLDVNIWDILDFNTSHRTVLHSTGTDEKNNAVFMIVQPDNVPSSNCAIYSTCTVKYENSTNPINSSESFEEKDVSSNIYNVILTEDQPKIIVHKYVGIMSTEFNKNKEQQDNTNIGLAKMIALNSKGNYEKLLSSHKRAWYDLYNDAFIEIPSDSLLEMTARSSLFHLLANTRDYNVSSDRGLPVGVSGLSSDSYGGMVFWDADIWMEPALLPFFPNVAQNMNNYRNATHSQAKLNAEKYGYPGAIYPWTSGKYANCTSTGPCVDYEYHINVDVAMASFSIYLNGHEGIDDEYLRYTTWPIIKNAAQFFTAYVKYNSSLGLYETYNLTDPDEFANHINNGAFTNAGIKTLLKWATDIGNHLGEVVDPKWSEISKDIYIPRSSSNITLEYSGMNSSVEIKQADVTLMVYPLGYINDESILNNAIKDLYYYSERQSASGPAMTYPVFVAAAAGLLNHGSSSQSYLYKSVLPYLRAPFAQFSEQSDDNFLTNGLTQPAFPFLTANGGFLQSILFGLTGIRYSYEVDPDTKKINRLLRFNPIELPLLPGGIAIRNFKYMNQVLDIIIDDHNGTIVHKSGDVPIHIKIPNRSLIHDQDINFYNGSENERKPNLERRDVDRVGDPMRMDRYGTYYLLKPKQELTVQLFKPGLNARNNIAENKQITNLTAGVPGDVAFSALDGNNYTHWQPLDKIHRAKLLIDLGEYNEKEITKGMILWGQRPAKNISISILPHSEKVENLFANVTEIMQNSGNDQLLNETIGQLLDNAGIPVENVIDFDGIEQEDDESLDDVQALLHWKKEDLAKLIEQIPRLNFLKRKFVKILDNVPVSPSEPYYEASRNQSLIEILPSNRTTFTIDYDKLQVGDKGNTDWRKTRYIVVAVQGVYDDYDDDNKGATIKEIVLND
Kind of assay: Inhibition of Saccharomyces cerevisiae trehalase. The note with it: read-out: I50.

For assay [9], the system named is Mamestra brassicae. Nature of the assay: Insecticidal activity against last-instar Mamestra brassicae larvae assessed as wing pad separation at 50 ug/larvae oral administration (reference value: 0%). It is filed as functional.

As to `OCC1=C[C@H](N[C@H]2C[C@H](CO)[C@@H](O)[C@H](O)[C@H]2O)[C@H](O)[C@@H](O)[C@@H]1O` [VALIDOXYLAMINE A], the Activity with Mamestra brassicae [1] is recorded as 100%; in the assay on Mamestra brassicae [2] it was 60%; in the assay with Mamestra brassicae [3], 27%; in the assay on Mamestra brassicae [4] it was 0%; with Spodoptera litura [5], 58%; in the assay with Spodoptera litura [6], 0%. The Activity is 85% in the assay with Spodoptera litura [7], 90% with Mamestra brassicae [8] and 10% in the assay with Mamestra brassicae [9]. On Trehalase (Bombyx mori), the inhibition is 78%. In addition, the IC50 on Vacuolar acid trehalase stood at 3 nM.
